We go through eight molecules from US12163161B2, “In vitro method for identifying thoracic aortic aneurysms (TAA) in a subject” (CENTRO NACIONAL DE INVESTIGACIONES CARDIOVASCULARES CARLOS …, priority 2016, dated 2024).

The subject of test [1] is siAdamts1-transduced C57BL/6 mice. Nature of the test: Aortopathy induced by siAdamts1 lentivirus (aortic Adamts1 knockdown) in C57BL/6 mice. It is filed as in vivo, mouse. As to conditions: for Elastic fiber fragmentation (elastolysis, elastin breaks) / Fibrosis (collagen content): aortic sections, end of experiment; for Aortic dilation (AsAo and AbAo diameter) induced by siAdamts1: anti-TGFβ 10 mg/kg i.p. 3 times per week, L-NAME 0.5 mg/ml in drinking water; for Systolic and diastolic BP (hypotension) in siAdamts1-transduced mice: same treatments as E4. From the text:
(§1) Animal procedures were approved by the CNIC Ethics Committee and conformed to European Union guidelines for the care and experimental use of animals. Adamts1+/− mice were obtained from the European Mouse Mutant Archive [(EM:02291) B6; 129P2-Adamts1<tm1Dgen>/H] and carried a LacZ-Neo cassette to replace a genomic sequence (c7784) between exon1 and 2 in the Adamts1 target allele. Fbn1C1039G/+ mice (Judge et al., 2004), harboring a mutation in the Fbn1 gene, and Nos2−/− mice (Laubach et al., 1995) were obtained from Jackson Laboratories (JAX mice stock #012885 and 007072, respectively). These 3 strains had been previously backcrossed to C57BL/6 for more than nine generations. All mice were genotyped by PCR of tail samples using the following primers: Adamts1 mice (5′-[…]-3′(SEQ ID NO: 5), 5′-[…] (SEQ ID NO: 6)/[…]-3′ (SEQ ID NO: 7)); Nos2−/− mice (5′[…] 3′ (SEQ ID NO: 8); 5′ […] 3′(SEQ ID NO: 9), 5′ […] 3′) (SEQ ID NO: 10); Fbn1C1039G/+ mice (5′CTCATCATTTTTGGCCAGTTG 3′ (SEQ ID NO: 11), 5′GCACTTGATGCACATTCACA 3′ (SEQ ID NO: 12)). Wild-type littermates were used as controls unless otherwise specified. Mice were treated with Ang-II (Sigma-Aldrich) at 1 μg/kg/min or losartan (Sigma Aldrich) at 10 mg/kg/day using subcutaneous osmotic minipumps (Alzet Corp). The monoclonal pan-antibody against TGFβ1, 2, 3 clone 1D11 (BioXcell) was injected intraperitoneally 3 times per week at 10 mg/kg.
(§2) Arterial blood pressure (BP) was measured in mouse tails using the automated BP-2000 Blood Pressure Analysis System (Visitech Systems, Apex, NC, USA). In brief, mice were trained for BP measurements every day for one week. After training, BP was measured one day before treatment or before lentiviral infection to determine the baseline BP values in each mouse cohort. Measurements were repeated several times during experiments. BP measurements were recorded in mice located in a tail-cuff restrainer, over a warmed surface (37° C.). Fifteen consecutive systolic and diastolic BP measurements were made, and the last ten readings per mouse were recorded and averaged.
(§3) For in vivo ultrasound images, the aortic diameter was monitored in isofluorane-anesthetized mice (2% isofluorane) by high-frequency ultrasound with a VEVO 2100 echography device (VisualSonics, Toronto, Canada). Maximal internal diameters of aortic images were measured using VEVO 2100 software, version 1.5.0. All recordings were made by a cardiologist and a technician who were blinded to animal genotype and treatment. Measurements were taken before lentivirus administration or the corresponding treatments to determine the baseline diameters, and measurements were repeated several times during the experiment.
For in vivo transduction experiments, animals were anesthetized (ketamine/xilacine) and a small incision was made to expose the right jugular vein (Esteban et al., 2011). Virus solution ([…] in PBS) was inoculated directly into the right jugular vein 3 weeks before Ang-II mini-pump implantation or one day before monitoring of aortic dilation. Transduction efficiency was analyzed in aortic samples by immunohistochemistry for GFP and Adamts1.
Images of Masson's trichrome and EVG staining were analyzed for collagen content with ImageJ (http://rsbweb.nih.gov/ij/index.html) and with MetaMorph (Molecular Devices; Sunnyvale, California) for quantification of elastin breaks. For each animal, elastin breaks were counted in 3 sections and the mean number of breaks was calculated. Images were processed for presentation with Photoshop and Illustrator (Adobe). […]
Aortic extracts were prepared from whole aortas as described for immunoblot assays, but in the absence of DTT. Extracts (15 μg) were fractionated under nonreducing conditions on SDS-polyacrylamide gels containing 1% gelatin. […]

In a further test the test system is Adamts1+/− mice. Nature of the test: Treatment of Adamts1+/− mice (aortic diameter, BP, histology). In kind it is in vivo, mouse.
Excerpt: as §1, §2, §3
Images of Masson's trichrome and EVG staining were analyzed for collagen content with ImageJ (http://rsbweb.nih.gov/ij/index.html) and with MetaMorph (Molecular Devices; Sunnyvale, California) for quantification of elastin breaks. For each animal, elastin breaks were counted in 3 sections and the mean number of breaks was calculated. Images were processed for presentation with Photoshop and Illustrator (Adobe).

In the next test the test system is Fbn1C1039G/+ mice. Put plainly: Treatment of Fbn1C1039G/+ mice (Marfan syndrome model). In kind it is in vivo, mouse.
Excerpt: as §1, §2
(§4) For in vivo ultrasound images, the aortic diameter was monitored in isofluorane-anesthetized mice (2% isofluorane) by high-frequency ultrasound with a VEVO 2100 echography device (VisualSonics, Toronto, Canada). Maximal internal diameters of aortic images were measured using VEVO 2100 software, version 1.5.0. […]
Images of Masson's trichrome and EVG staining were analyzed for collagen content with ImageJ (http://rsbweb.nih.gov/ij/index.html) and with MetaMorph (Molecular Devices; Sunnyvale, California) for quantification of elastin breaks. For each animal, elastin breaks were counted in 3 sections and the mean number of breaks was calculated. […]

The target of test [2] is T1, Nos2 (Mus musculus, UniProt P29477).
T1 construct: endogenous in cells; host or cells: primary mouse VSMCs transduced with siCtl or siAdamts1 lentivirus
Nature of the test: NO / total NOx production in VSMCs transduced with siAdamts1 and treated with Nos2 inhibitors. It is filed as cell-based. To be noted: FIG. 16: 1400W (2 μm), AG, GW273629 (20 μm), 1-NIL (3 mM), Clotrimazole (20 μM). How it is done: FIG. 17. Representative images (n=4) of NO production (red) and GFP fluorescence (green) in unfixed VSMCs transduced with siCtl or siAdamts1 and treated with the Nos2 inhibitors as indicated. Bar, 50 μm.
Mouse vascular smooth muscle cells (VSMCs) were isolated and grown as described (Esteban et al., 2011). All experiments were performed during passages 3-7. VSMCs were infected at a multiplicity of infection (MOI)=3 over 5 h. The medium was then replaced with fresh DMEM supplemented with 10% FBS, and cells were cultured for 3 more days, serum-starved for 48 h and then stimulated with Ang-II for 6 h for protein assays or 4 h for mRNA expression analysis.

Another test deals with mouse model of mild MFS. As to conditions: cited from earlier work.
The next test concerns model of severe MFS. To be noted: compared with mild MFS model; cited from earlier work.
A further test deals with aortic root enlargement. As to conditions: randomized clinical trials, cited from earlier work.
In test [3] the target is NOS2 (Homo sapiens, UniProt P35228). As to conditions: as reported previously; cited from earlier work.
The subject of the next test is wt mice. Put plainly: Ang-II treatment of wt mice for 28 days (ultrasonography of aorta). In kind it is in vivo, mouse.
Excerpt: Animal procedures were approved by the CNIC Ethics Committee and conformed to European Union guidelines for the care and experimental use of animals. Adamts1+/− mice were obtained from the European Mouse Mutant Archive [(EM:02291) B6; 129P2-Adamts1<tm1Dgen>/H] and carried a LacZ-Neo cassette to replace a genomic sequence (c7784) between exon1 and 2 in the Adamts1 target allele. Fbn1C1039G/+ mice (Judge et al., 2004), harboring a mutation in the Fbn1 gene, and Nos2−/− mice (Laubach et al., 1995) were obtained from Jackson Laboratories (JAX mice stock #012885 and 007072, respectively). These 3 strains had been previously backcrossed to C57BL/6 for more than nine generations. […]
as §4
To investigate the contribution of Adamts1 to Ang-II-elicited aortic dilation and aneurysm, we used Adamts1 deficient mice from the European Mouse Mutant Archive (EM: 02291). […] No aneurysms or lethal dissections were detected in Adamts1+/− mice in the absence of Ang-II at this age.

[4] abbreviates: L-NAME 21 days, end of experiment.

NOS2, sequence (P35228 whole entry): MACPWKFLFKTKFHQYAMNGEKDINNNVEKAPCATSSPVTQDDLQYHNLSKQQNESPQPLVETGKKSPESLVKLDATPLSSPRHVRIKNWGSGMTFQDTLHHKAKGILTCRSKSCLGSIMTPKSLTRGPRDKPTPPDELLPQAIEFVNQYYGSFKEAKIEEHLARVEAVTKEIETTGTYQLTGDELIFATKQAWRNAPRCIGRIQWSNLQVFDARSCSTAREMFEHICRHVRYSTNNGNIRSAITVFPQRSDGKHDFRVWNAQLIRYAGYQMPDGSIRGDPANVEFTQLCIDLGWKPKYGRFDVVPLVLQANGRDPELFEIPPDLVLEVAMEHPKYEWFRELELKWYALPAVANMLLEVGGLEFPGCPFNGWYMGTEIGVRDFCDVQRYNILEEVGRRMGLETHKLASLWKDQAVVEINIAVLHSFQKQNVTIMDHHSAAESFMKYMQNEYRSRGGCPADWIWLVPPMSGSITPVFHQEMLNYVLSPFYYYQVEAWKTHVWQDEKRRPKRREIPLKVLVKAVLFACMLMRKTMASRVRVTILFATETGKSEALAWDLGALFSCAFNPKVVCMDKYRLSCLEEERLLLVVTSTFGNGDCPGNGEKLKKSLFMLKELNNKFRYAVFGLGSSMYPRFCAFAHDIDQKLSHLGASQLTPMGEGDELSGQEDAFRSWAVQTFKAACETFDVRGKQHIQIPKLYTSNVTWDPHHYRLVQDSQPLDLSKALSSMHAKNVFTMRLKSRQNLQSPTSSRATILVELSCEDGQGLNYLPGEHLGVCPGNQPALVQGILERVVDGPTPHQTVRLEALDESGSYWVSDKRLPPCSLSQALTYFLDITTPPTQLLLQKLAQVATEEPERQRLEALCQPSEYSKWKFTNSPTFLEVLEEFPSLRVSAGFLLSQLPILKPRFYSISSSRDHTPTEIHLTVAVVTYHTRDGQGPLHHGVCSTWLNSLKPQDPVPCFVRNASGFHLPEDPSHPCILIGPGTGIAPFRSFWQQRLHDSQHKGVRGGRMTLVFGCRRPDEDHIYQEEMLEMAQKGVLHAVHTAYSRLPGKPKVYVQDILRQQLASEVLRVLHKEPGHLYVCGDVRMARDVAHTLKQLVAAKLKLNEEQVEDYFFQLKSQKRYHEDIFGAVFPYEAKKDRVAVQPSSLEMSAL

Consider `COC(=O)[C@@H](N)CCCNC(=N)N[N+](=O)[O-].Cl` [L-NAME, Nω-Nitro-L-arginine methyl ester hydrochloride], for which, in test [1] (aortic extracts from siAdamts1-transduced mice), the “Mmp9 activation (zymography)” value is “prevented Mmp9 activation”. Also, in test [1], the “Elastic fiber fragmentation (elastolysis, elastin breaks)” value is on record as “blocked elastolysis”; the “Fibrosis (collagen content)” value is “decreased the fibrosis”; the “Systolic and diastolic BP (hypotension) in siAdamts1-transduced mice” value is “hypertensive effect”. For the same molecule, the “Aortic dilation (AsAo and AbAo diameter) induced by siAdamts1” value in test [1] (losartan 10 mg/kg/day minipump) is “prevented siAdamts1-induced dilation of the AsAo and the AbAo”. The “Time to complete reversal of aortic dilation” value with Adamts1+/− mice (Adamts1+/− and MFS mice) turned out to be 1 week. Further, in the test with Adamts1+/− mice (setting [4]), the Elastic fiber fragmentation entry is listed as “decreased elastic fiber fragmentation” and the “Fibrosis (collagen content)” value is recorded as “diminished fibrosis”. In addition, the “AsAo and AbAo diameter” value in the test with Adamts1+/− mice (L-NAME in drinking water for 21 days) was “rapidly decreased AsAo and AbAo diameter to normal levels”. Moreover, the “Systolic and diastolic BP” value in the test on Adamts1+/− mice (L-NAME in drinking water for 21 days, end of experiment) is “reverted the systolic and diastolic hypotension”. In the test on Fbn1C1039G/+ mice (12-week-old mice, L-NAME in drinking water for 21 days), the “AsAo and AbAo diameters” value is “rapidly decreased the AsAo and AbAo diameters to normal levels”. Also, in the test with Fbn1C1039G/+ mice (L-NAME 21 days, AsAo and AbAo), the Collagen content entry was “unaffected”. Moreover, in the test with Fbn1C1039G/+ mice (setting [4]), the Elastic fiber fragmentation result is “diminished elastic fiber fragmentation”; the “Systolic and diastolic BP” value is “augmented the systolic and diastolic BP”. In addition, the “NO production (total NOx in conditioned media, NO staining)” value (from here on “NO production”) at Nos2 [2] was “reduced the expression of NO”.
`CC(=N)NCCCC[C@H](N)C(=O)O` [L-NIL]: at Nos2 [2], the “NO production” value is recorded as “reduced the expression of NO”.
As to `CCCCc1nc(Cl)c(CO)n1Cc1ccc(-c2ccccc2-c2nn[nH]n2)cc1` [losartan], in test [1], the “Elastic fiber fragmentation (elastolysis, elastin breaks)” value is “did not reduce elastic fiber fragmentation”; the “Fibrosis (collagen content)” value was “did not reduce elastic fiber fragmentation or fibrosis”; the “Systolic and diastolic BP (hypotension) in siAdamts1-transduced mice” value was “did not prevent hypotension”. Moreover, the “Aortic dilation (AsAo and AbAo diameter) induced by siAdamts1” value in test [1] (losartan 10 mg/kg/day minipump) was “neither treatment inhibited aortic dilation”. Moreover, in test [1] (siCtl control mice, losartan 10 mg/kg/day minipump), the “BP in control mice” value is reported as “reduced BP in control mice”. In the test with mouse model of mild MFS, the Aortic dilation entry is reported as “these processes are also inhibited” and the Elastic lamellae fragmentation entry is on record as “these processes are also inhibited”. In addition, the “Effectiveness in severe MFS model” value with model of severe MFS is on record as “less effective”. The “Reduction of the rate of aortic root enlargement” value with aortic root enlargement (versus atenolol) is “no more effective”. The “Benefit of dual therapy with atenolol” value in the test on aortic root enlargement was “no additional benefit”.
As for Aminoguanidine, the “Aortic diameter (ascending and abdominal aorta)” value in the test on Adamts1+/− mice (AG 1.5 gr/1 in drinking water) was “reduces aortic diameter”. The “NO production” value at Nos2 [2] is “reduced the expression of NO”.
As for `CC(=N)NCCS(=O)(=O)CC(N)C(=O)O` (centres unmarked) [GW273629], the “NO production” value on Nos2 [2] is given as “reduced the expression of NO”.
As to `CC(=N)NCc1cccc(CN)c1` [1400W], the “NO production” value at Nos2 [2] was “reduced the expression of NO”.
On to `Clc1ccccc1C(c1ccccc1)(c1ccccc1)n1ccnc1` [Clotrimazole], for which the “NO production” value on Nos2 [2] is reported as “reduced the expression of NO”. The “Dimerization of NOS2” value on NOS2 [3] was “inhibits the dimerization of NOS2”.
“Angiotensin-II (DRVYIHPF; Angiotensin-2; UniProt P01019 25-32, looked up) [Ang-II]”: the “AA or lethal aortic dissections” value with Adamts1+/− mice (Adamts1+/− mice, Ang-II 28 days) is reported as “readily triggered their formation”; with wt mice (wt mice, Ang-II 28 days), “barely induced AA or lethal aortic dissections”. Moreover, in the test with wt mice (8-week-old wt mice, Ang-II for 28 days, 1 μg/kg/min minipump), the “Aortic dilation (AR, AsAo, AbAo)” value is given as “promoted generalized aortic dilation”.
